Consider 42 molecules from patent US7943628B2, “Pyrimidine derivatives” (Pfizer Limited, priority 2005, dated 2011).

T1 sequence (Q9H3N8 whole entry): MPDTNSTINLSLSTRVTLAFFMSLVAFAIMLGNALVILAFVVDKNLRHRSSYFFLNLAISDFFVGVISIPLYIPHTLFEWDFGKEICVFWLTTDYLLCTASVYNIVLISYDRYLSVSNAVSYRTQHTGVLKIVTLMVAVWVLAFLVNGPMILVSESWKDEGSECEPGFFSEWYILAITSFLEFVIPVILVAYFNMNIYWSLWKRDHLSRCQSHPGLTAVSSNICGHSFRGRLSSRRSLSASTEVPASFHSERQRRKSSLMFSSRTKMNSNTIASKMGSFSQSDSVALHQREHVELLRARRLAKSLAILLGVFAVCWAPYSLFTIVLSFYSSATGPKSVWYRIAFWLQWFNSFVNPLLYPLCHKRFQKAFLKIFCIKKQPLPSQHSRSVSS

The first assay has as its target T1, histamine H4 receptor (Homo sapiens, UniProt Q9H3N8).
T1 construct: expressed in transfected cells; host or cells: CHO cells
The assay is described as follows: H4 binding, method 1 ([3H]-histamine filtration binding on CHO cell membranes). To be noted: 1.5 h. The gist of the method: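 Membranes from CHO cells expressing human H4 receptor (20-35 μg/well) incubated 90 min at room temperature with 3 nM [3H]-histamine in 50 mM Tris-HCl pH 7.4, ± competitor. Bound label separated by filtration on PEI-soaked GF/B filters and counted by scintillation; non-specific binding with 10 μM JNJ7777120.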
For `CCNc1cc(N2CC(C)(NC)C2)nc(N)n1` [Example 257, N^4-Ethyl-6-[3-methyl-3-(methylamino)azetidin-1-yl]pyrimidine-2,4-diamine], the inhibition (commonly the relative decrease from the control value, in per cent) at 10 µM worked out at 100%.
The same measure, in the same setting: as for `CC(C)(C)CNc1cc(N2CCN(C3CCCCC3)CC2)ncn1` [Example 260, 6-(4-Cyclohexylpiperazin-1-yl)-N-(2,2-dimethylpropyl)pyrimidin-4-amine], the figure is 100%; as for `CNC1CN(c2cc(N3CCOCC3)nc(N)n2)C1` [Example 268, 4-[3-(Methylamino)azetidin-1-yl]-6-morpholin-4-ylpyrimidin-2-amine], 16%.

The same assay, now with this note: H4 binding, method 1; Ki calculated from IC50 (Cheng-Prussoff).
On to `CN[C@@H]1CCN(c2cc(NCCC(F)(F)F)nc(N)n2)C1` [Example 235, 6-[(3R)-3-(Methylamino)pyrrolidin-1-yl]-N^4-(3,3,3-trifluoropropyl)pyrimidine-2,4-diamine], for which the Ki (usually a dissociation constant, usually derived from enzyme kinetics or from competition with a known ligand) was 198 nM.
The same measure, in the same setting: as for `CNC1CN(c2cc(N3CC(F)(F)C3)nc(N)n2)C1` [Example 236, 4-(3,3-Difluoroazetidin-1-yl)-6-[3-(methylamino)azetidin-1-yl]pyrimidin-2-amine], the figure is 205 nM; as for `C[C@@H]1CN(c2cc(NCc3ccccc3F)nc(N)n2)CCN1` [Example 237, N^4-(2-Fluorobenzyl)-6-[(3R)-3-methylpiperazin-1-yl]pyrimidine-2,4-diamine], 211 nM; as for `CC(C)Nc1cc(N2C[C@H]3CNC[C@H]3C2)nc(N)n1` [Example 238, 6-[(3aR*,6aS*)-Hexahydropyrrolo[3,4-c]pyrrol-2(1H )-yl]-N^4-isopropylpyrimidine-2,4-diamine], 222 nM.
Same read-out and setting: as for `CN1CCCN(c2cc(NCC(C)(C)C)ncn2)CC1` [Example 239, N-(2,2-Dimethylpropyl)-6-(4-methyl-1,4-diazepan-1-yl)pyrimidin-4-amine], the figure is 235 nM.
Regarding `C[C@H]1CN(c2cc(NCc3ccc(F)cc3)nc(N)n2)CCN1` [Example 240, N^4-(4-Fluorobenzyl)-6-[(3S)-3-methylpiperazin-1-yl]pyrimidine-2,4-diamine], the Ki was 238 nM.
For the molecule `CNC1CN(c2cc(N3CCOC[C@@H]3C)nc(N)n2)C1` [Example 242, 4-[3-(Methylamino)azetidin-1-yl]-6-[(3S)-3-methylmorpholiN^4-yl]pyrimidin-2-amine], the Ki was 258 nM.
Regarding `CN[C@@H]1CCN(c2cc(NCC3CCC3)nc(N)n2)C1` [Example 243, N^4-(Cyclobutylmethyl)-6-[(3R)-3-(methylamino)pyrrolidin-1-yl]pyrimidine-2,4-diamine], the Ki is 266 nM.
For the molecule `CC(C)(C)CCNc1cc(N2CC(N3CCCC3)C2)ncn1` [Example 244, N-(3,3-Dimethylbutyl)-6-(3-pyrrolidin-1-ylazetidin-1-yl)pyrimidin-4-amine], the Ki was 297 nM.
On to `CN[C@@H]1CCN(c2cc(NCc3cc(F)ccc3F)nc(N)n2)C1` [Example 245, N^4-(2,5-Difluorobenzyl)-6-[(3R)-3-(methylamino)pyrrolidin-1-yl]pyrimidine-2,4-diamine], for which the Ki is 298 nM.
`CC1(N)CCN(c2cc(NCC3CC3)nc(N)n2)C1` (stereo not drawn) [Example 246, 6-(3-Amino-3-methylpyrrolidin-1-yl)-N^4-(cyclopropylmethyl)pyrimidine-2,4-diamine]: the Ki was 301 nM.
In the case of `C[C@@H]1CN(c2cc(NCc3ccc(F)cc3)nc(N)n2)CCN1` [Example 247, N^4-(4-Fluorobenzyl)-6-[(3R)-3-methylpiperazin-1-yl]pyrimidine-2,4-diamine], the Ki is 312 nM.
The same measure, in the same setting: as for `CNc1cc(N2CC(C)(NC)C2)nc(N)n1` [Example 248, N^4-Methyl-6-[3-methyl-3-(methylamino)azetidin-1-yl]pyrimidine-2,4-diamine], the figure is 329 nM.
As for `CN[C@@H]1CCN(c2cc(NCc3cccc(F)c3)nc(N)n2)C1` [Example 249, N^4-(3-Fluorobenzyl)-6-[(3R)-3-(methylamino)pyrrolidin-1-yl]pyrimidine-2,4-diamine], the inhibitory constant (Ki) was 343 nM.
Same read-out and setting: the same measure for `CNC1CCCN(c2cc(NCC(C)(C)C)nc(N)n2)C1` (stereo not drawn) [Example 250, N^4-(2,2-Dimethylpropyl)-6-[3-(methylamino)piperidin-1-yl]pyrimidine-2,4-diamine]: 353 nM; for `C[C@H]1CN(c2cc(NCc3ccccc3)nc(N)n2)CCN1` [Example 251, N^4-Benzyl-6-[(3S)-3-methylpiperazin-1-yl]pyrimidine-2,4-diamine]: 355 nM; for `C[C@H]1CN(c2cc(NC3CC3)ncn2)CCN1` [Example 252, N-Cyclopropyl-6-[(3S)-3-methylpiperazin-1-yl]pyrimidin-4-amine]: 370 nM.
`CN[C@@H]1CCN(c2cc(NCc3ccccc3F)nc(N)n2)C1` [Example 253, N^4-(2-Fluorobenzyl)-6-[(3R)-3-(methylamino)pyrrolidin-1-yl]pyrimidine-2,4-diamine]: the Ki was 380 nM.
Same read-out and setting: as for `CN[C@@H]1CCN(c2cc(NCc3ccccc3)nc(N)n2)C1` [Example 254, N^4-Benzyl-6-[(3R)-3-(methylamino)pyrrolidin-1-yl]pyrimidine-2,4-diamine], the figure is 380 nM.
Still for that read-out and setting: as for `Nc1nc(NCc2cccc(F)c2F)cc(N2CC[C@@H](N)C2)n1` [Example 255, 6-[(3R)-3-Aminopyrrolidin-1-yl]-N^4-(2,3-difluorobenzyl)pyrimidine-2,4-diamine], the figure is 452 nM.
On the same count and under the same terms, as for `CN[C@@H]1CCN(c2cc(NC3CC3)nc(N)n2)C1` [Example 256, N^4-Cyclopropyl-6-[(3R)-3-(methylamino)pyrrolidin-1-yl]pyrimidine-2,4-diamine], the figure is 501 nM; as for `CCCNc1cc(N2CCN[C@@H](C)C2)ncn1` [Example 258, 6-[(3S)-3-Methylpiperazin-1-yl]-N-propylpyrimidin-4-amine], 509 nM.
Regarding `C[C@@H]1CN(c2cc(NCc3ccccc3)nc(N)n2)CCN1` [Example 259, N^4-Benzyl-6-[(3R)-3-methylpiperazin-1-yl]pyrimidine-2,4-diamine], the Ki is 577 nM.
On the same count and under the same terms, the same measure for `CNC1(C)CN(c2cc(NC(C)C)ncn2)C1` [Example 261, N-Isopropyl-6-[3-methyl-3-(methylamino)azetidin-1-yl]pyrimidin-4-amine]: 617 nM; for `CNc1cc(N2CC[C@@H](NC)C2)ncn1` [Example 262, N-Methyl-6-[(3R)-3-(methylamino)pyrrolidin-1-yl]pyrimidin-4-amine]: 623 nM.
For `CNC1CN(c2cc(N3CCOC[C@H]3C)nc(N)n2)C1` [Example 263, 4-[3-(Methylamino)azetidin-1-yl]-6-[(3R)-3-methylmorpholiN^4-yl]pyrimidin-2-amine], the Ki was 626 nM.
Same read-out and setting: the same measure for `CCCNc1cc(N2CCC(C)(N)C2)nc(N)n1` (stereo not drawn) [Example 264, 6-(3-Amino-3-methylpyrrolidin-1-yl)-N^4-propylpyrimidine-2,4-diamine]: 704 nM; for `CCNc1cc(N2CCC(C)(N)C2)nc(N)n1` (stereo not drawn) [Example 265, 6-(3-Amino-3-methylpyrrolidin-1-yl)-N^4-ethylpyrimidine-2,4-diamine]: 705 nM; for `CCCNc1cc(N2CCC(N)CC2)nc(N)n1` [Example 266, 6-(4-Aminopiperidin-1-yl)-N^4-propylpyrimidine-2,4-diamine]: 708 nM.
On the same count and under the same terms, as for `C[C@@H]1CN(c2cc(NCc3cccc(F)c3)nc(N)n2)CCN1` [Example 267, N^4-(3-Fluorobenzyl)-6-[(3R)-3-methylpiperazin-1-yl]pyrimidine-2,4-diamine], the figure is 715 nM; as for `Nc1nc(NC2CC2)cc(N2CCC(N)CC2)n1` [Example 269, 6-(4-Aminopiperidin-1-yl)-N^4-cyclopropylpyrimidine-2,4-diamine], 839 nM.
Still for that read-out and setting: as for `CN[C@@H]1CCN(c2cc(NCc3c(F)cccc3F)nc(N)n2)C1` [Example 271, N^4-(2,6-Difluorobenzyl)-6-[(3R)-3-(methylamino)pyrrolidin-1-yl]pyrimidine-2,4-diamine], the figure is 870 nM; as for `CN[C@@H]1CCN(c2cc(NCc3cccc(F)c3F)nc(N)n2)C1` [Example 272, N^4-(2,3-Difluorobenzyl)-6-[(3R)-3-(methylamino)pyrrolidin-1-yl]pyrimidine-2,4-diamine], 901 nM; as for `CN[C@@H]1CCN(c2cc(NCc3cc(F)cc(F)c3)nc(N)n2)C1` [Example 273, N^4-(3,5-Difluorobenzyl)-6-[(3R)-3-(methylamino)pyrrolidin-1-yl]pyrimidine-2,4-diamine], 950 nM.
As to `CC(C)(C)CCNc1cc(N[C@H]2CCN(Cc3ccc(CO)o3)C2)ncn1` [Example 274, (5-{[(3S)-3-({6-[(3,3-Dimethylbutyl)amino]pyrimidin-4yl}amino)pyrrolidin--1-yl]methyl}-2-furyl)methanol], the Ki was 1070 nM.
Take `CN[C@@H]1CCN(c2cc(N3CC(F)(F)C3)nc(N)n2)C1` [Example 275, 4-(3,3-Difluoroazetidin-1-yl)-6-[(3R)-3-(methylamino)pyrrolidin-1-yl]pyrimidin-2-amine]: the Ki is 1160 nM.
With `CN[C@@H]1CCN(c2cc(NCc3ccc(F)c(F)c3)nc(N)n2)C1` [Example 277, N^4-(3,4-Difluorobenzyl)-6-[(3R)-3-(methylamino)pyrrolidin-1-yl]pyrimidine-2,4-diamine], the Ki is 1230 nM.

Still in this assay, the particulars now being: at 1 μM.
As to `CC(C)Nc1cc(N2C[C@H]3CN(C)C[C@H]3C2)nc(N)n1` [Example 241, N^4-Isopropyl-6-[(3aR*,6aS*)-5-methylhexahydropyrrolo[3,4-c]pyrrol-2(1H)-yl]pyrimidine-2,4-diamine], the “Method 1, % at 1 μM” value was determined as 45% at 1 μM.

The assay is the same for the next values; noted with them: at 3.16 μM.
For `CNC1CN(c2cc(NCC3CC3)nc(NCC3CC3)n2)C1` [Example 276, N,N′-Bis(cyclopropylmethyl)-6-[3-(methylamino)azetidin-1-yl]pyrimidine-2,4-diamine], the “Method 1, % at 3.16 μM” value is given as 14% at 3.16 μM.
